Source: patent US10626081B2, “Farnesoid X receptor agonists and uses thereof” (Metacrine, Inc., priority 2015, dated 2020)

What was measured:
FXR [1] = biological target: T1, FXR (Homo sapiens, UniProt Q96RI1); experiment: In Vitro FXR Assay (TK): TK-ECRE-luc reporter in transfected CV-1 cells; format: cell-based; details: CV-1 cells transfected with hFXR, hRXR, 18 h incubation, luminescence
T1 construct: expressed in transfected cells; host or cells: CV-1 cells
T1 sequence (Q96RI1 1-486): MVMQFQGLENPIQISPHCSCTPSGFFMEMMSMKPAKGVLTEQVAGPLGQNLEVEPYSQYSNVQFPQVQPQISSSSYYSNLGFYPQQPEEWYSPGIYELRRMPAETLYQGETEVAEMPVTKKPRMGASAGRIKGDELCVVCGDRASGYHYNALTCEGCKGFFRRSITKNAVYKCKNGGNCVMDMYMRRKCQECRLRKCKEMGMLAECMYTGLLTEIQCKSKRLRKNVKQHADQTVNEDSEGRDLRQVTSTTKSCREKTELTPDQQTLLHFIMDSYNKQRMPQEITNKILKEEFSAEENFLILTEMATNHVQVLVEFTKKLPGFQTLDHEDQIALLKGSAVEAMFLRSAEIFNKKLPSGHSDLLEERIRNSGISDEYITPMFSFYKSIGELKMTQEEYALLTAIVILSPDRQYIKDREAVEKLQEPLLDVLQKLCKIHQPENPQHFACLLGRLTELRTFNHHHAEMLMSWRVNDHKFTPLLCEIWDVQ
T1 sequence (P19793 1-462 partner): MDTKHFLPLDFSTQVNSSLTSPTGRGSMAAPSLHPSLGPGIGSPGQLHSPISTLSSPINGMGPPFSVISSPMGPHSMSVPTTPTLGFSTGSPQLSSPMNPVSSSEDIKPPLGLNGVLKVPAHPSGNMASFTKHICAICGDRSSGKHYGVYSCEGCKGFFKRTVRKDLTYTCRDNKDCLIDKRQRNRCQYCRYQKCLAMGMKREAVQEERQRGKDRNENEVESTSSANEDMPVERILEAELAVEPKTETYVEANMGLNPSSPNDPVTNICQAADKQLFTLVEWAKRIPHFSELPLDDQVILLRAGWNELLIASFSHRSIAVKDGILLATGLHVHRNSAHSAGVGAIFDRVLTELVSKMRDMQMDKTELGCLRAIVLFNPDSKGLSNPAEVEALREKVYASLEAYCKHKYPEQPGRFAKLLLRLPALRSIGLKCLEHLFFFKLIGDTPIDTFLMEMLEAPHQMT
Procedure, shortened: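 CV-1 cells in charcoal-stripped FBS medium were transiently cotransfected with hFXR, hRXR, TK-ECRE-luc and pCMX-YFP plasmids. After 18 h, compounds serially diluted in DMSO were added for 18 h at 37 °C, 5% CO2, then cells were lysed and luminescence read.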

FXR [2] = biological target: T1, FXR; experiment: In Vitro FXR Assay (PGL3): luciferase reporter in transfected CV-1 cells; format: cell-based; details: CV-1 cells transfected with hFXR, hRXR, PGL3-ECRE*6-luc; 18 h incubation; luminescence
Description: Example B-1: In Vitro FXR Assay (PGL3)
CV-1 cells were seeded at a density of 2,000,000 cells in a T175 flask with DMEM+10% charcoal double-stripped FBS and incubated at 37° C. in a 5% CO2 for 18 h (O/N).
After 18 h of incubation, the medium in the T175 flask was changed with fresh DMEM+10% charcoal super-stripped serum.
To prepare the transfection reaction mixture, the transfection reagent (X-tremeGENE HP from Roche, Cat #06 366 236 001) was added in to a 1.5 mL microcentrifuge tube labelled “A” at a ratio of 1:3 (DNA in transfection reagent in μL). OptiMEM medium (Life Technologies, Cat #31985-062) was added accordingly to provide a total volume of 1 mL. The transfection reaction mixture was then briefly vortexed and incubated at room temperature for 5 minutes.
In a separate 1.5 mL microcentrifuge tube labelled “B”, 100 μL OptiMEM and plasmids XPD90Gal pCMXhFXRfl, pCMXhRXRfl+PGL3-ECRE*6-luc+CMX-YFP in the ratio 2 μg:2 μg:18 μg:3 μg were added. This microcentrifuge tube “B” was then briefly vortexed and incubated at room temperature for 5 minutes.
The total volume in tube labelled “A” was then transferred in to tube labelled “B.” The mixture was then briefly vortexed and the transfection:DNA complex was then incubated for about 15-20 minutes at room temperature.
Following incubation, the transfection reagent/DNA mixture complex was then added to cells in the T175 flask and the cells were incubated at […] (O/N) at 37° C. in 5% CO2.
In a 96 well plate, a half logarithmic serial dilution was prepared. OptiMEM was used as the diluent. Using any of one of the compounds described herein, a compound stock solution of 10 mM was prepared. An initial 1:100 dilution was made into the first well for a final concentration of 100 μM. The final concentrations in the 96-well plate was prepared by using a multichannel pipette to transfer 5 μL of the diluted compound to 384-well plate in quadruplicate.
Cells in T175 flask were trypsinized and cells were resuspended in 40 mL phenol red free DMEM+10% charcoal super-stripped FBS. Typically, one T175 flask was sufficient to seed two 384 well plates. CV-1 cells were seeded at 45 μL cell suspension/well using a multi-channel pipet or a 384 multidrop dispenser. The cells were then incubated for 18 hrs, overnight.
After removing the plates from the incubator, the medium was flicked out of plate and 384 well plate was turned upside down onto paper towel. The remaining medium was gently tapped out. 15 μL lysis buffer was then added to each well using a multichannel pipet or a 384 well multi-drop dispenser. After incubation for 10 minutes at room temperature on shaker, 30 μL Luciferase buffer was added to each well. Luminescence counts were taken immediately using the Perkin Elmer Envision.
The ability of the compounds disclosed herein to […] FXR activity was quantified and the respective EC50 value was determined. Fex=fexaramine.

| SMILES | EC50 (FXR [1]) [nM] | Cmpd/Fex (ratio of the EC50 for the test compound relative to the EC50 of the Fexaramine control) (FXR [2]) |
| --- | --- | --- |
| COC(=O)/C=C/c1cccc(N(Cc2ccc(-c3ccc(N(C)C)cc3)cc2)C(=O)[C@H]2CC[C@H](O)CC2)c1 [compound 19, trans-(E)-Methyl 3-(3-(N-((4′-(dimethylamino)-[1,1′-biphenyl]-4-yl)methyl)-4-hydroxycyclohexanecarboxamido)phenyl)acrylate] | ≤ 1000 | +++ (‘+++’ means Cmpd/Fex < 10) |
| COC(=O)/C=C/c1cccc(N(Cc2ccc(-c3ccc(N(C)C)c(C)c3)cc2)C(=O)C2CCCCC2)c1 [compound 20, (E)-Methyl 3-(3-(N-((4′-(dimethylamino)-3′-methyl-[1,1′-biphenyl]-4-yl)methyl)cyclohexanecarboxamido)phenyl)acrylate] | ≤ 1000 | +++ (‘+++’ means Cmpd/Fex < 10) |
| COC(=O)/C=C/c1cccc(N(Cc2ccc(-c3ccccc3C)cc2)C(=O)C2CCCCC2)c1 [compound 21, (E)-Methyl 3-(3-(N-((2′-methyl-[1,1′-biphenyl]-4-yl)methyl)cyclohexanecarboxamido)phenyl)acrylate] | 1000 to 10000 | +++ (‘+++’ means Cmpd/Fex < 10) |
| COC(=O)/C=C/c1cccc(N(Cc2ccc(-c3ccncc3)cc2)C(=O)C2CCCCC2)c1 [compound 22, (E)-Methyl 3-(3-(N-(4-(pyridin-4-yl)benzyl)cyclohexanecarboxamido)phenyl) acrylate] | 1000 to 10000 | + (‘+’ means Cmpd/Fex > 100) |
| COC(=O)/C=C/c1cccc(N(Cc2ccc(-c3ccc(C#N)cc3)cc2)C(=O)C2CCCCC2)c1 [compound 23, (E)-Methyl 3-(3-(N-((4′-cyano-[1,1′-biphenyl]-4-yl)methyl)cyclohexanecarboxamido)phenyl)acrylate] | 1000 to 10000 | +++ (‘+++’ means Cmpd/Fex < 10) |
| COC(=O)/C=C/c1cccc(N(Cc2ccc(-c3cccc(C#N)c3)cc2)C(=O)C2CCCCC2)c1 [compound 24, (E)-Methyl 3-(3-(N-((3′-cyano-[1,1′-biphenyl]-4-yl)methyl)cyclohexanecarboxamido)phenyl)acrylate] | ≤ 1000 | +++ (‘+++’ means Cmpd/Fex < 10) |
| COC(=O)/C=C/c1cccc(N(Cc2ccc(-c3ccc(F)cc3)cc2)C(=O)C2CCCCC2)c1 [compound 25, (E)-Methyl 3-(3-(N-((4′-fluoro-[1,1′-biphenyl]-4-yl)methyl)cyclohexanecarboxamido)phenyl)acrylate] | 1000 to 10000 | ++ (‘++’ means Cmpd/Fex > 10 & < 100) |
| COC(=O)/C=C/c1cccc(N(Cc2ccc(-c3cccc(F)c3)cc2)C(=O)C2CCCCC2)c1 [compound 26, (E)-Methyl 3-(3-(N-((3′-fluoro-[1,1′-biphenyl]-4-yl)methyl)cyclohexanecarboxamido)phenyl)acrylate] | 1000 to 10000 | +++ (‘+++’ means Cmpd/Fex < 10) |
| COC(=O)/C=C/c1cccc(N(Cc2ccc(-c3ccccc3F)cc2)C(=O)C2CCCCC2)c1 [compound 27, (E)-Methyl 3-(3-(N-((2′-fluoro-[1,1′-biphenyl]-4-yl)methyl)cyclohexanecarboxamido)phenyl) acrylate] | 1000 to 10000 | +++ (‘+++’ means Cmpd/Fex < 10) |
| COC(=O)/C=C/c1cccc(N(Cc2ccc(-c3cnn(C)c3)cc2)C(=O)C2CCCCC2)c1 [compound 28, (E)-Methyl 3-(3-(N-(4-(1-methyl-1H-pyrazol-4-yl)benzyl)cyclohexanecarboxamido)phenyl)acrylate] | 1000 to 10000 | ++ (‘++’ means Cmpd/Fex > 10 & < 100) |
| COC(=O)/C=C/c1cccc(N(Cc2ccc(-c3cccnc3)cc2)C(=O)C2CCCCC2)c1 [compound 29, (E)-Methyl 3-(3-(N-(4-(pyridin-3-yl)benzyl)cyclohexanecarboxamido)phenyl) acrylate] | 1000 to 10000 | ++ (‘++’ means Cmpd/Fex > 10 & < 100) |
| COC(=O)/C=C/c1cccc(N(Cc2ccc(-c3cccc(OC(F)(F)F)c3)cc2)C(=O)C2CCCCC2)c1 [compound 30, (E)-Methyl 3-(3-(N-((3′-(trifluoromethoxy)-[1,1′-biphenyl]-4-yl)methyl)cyclohexanecarboxamido)phenyl)acrylate] | 1000 to 10000 | + (‘+’ means Cmpd/Fex > 100) |
| COC(=O)/C=C/c1cccc(N(Cc2ccc(-c3c(C)noc3C)cc2)C(=O)C2CCCCC2)c1 [compound 31, (E)-Methyl 3-(3-(N-(4-(3,5-dimethylisoxazol-4-yl)benzyl)cyclohexanecarboxamido)phenyl)acrylate] | 1000 to 10000 | + (‘+’ means Cmpd/Fex > 100) |
| COC(=O)/C=C/c1cccc(N(Cc2ccc(-c3ccc(OC(C)C)cc3)cc2)C(=O)C2CCCCC2)c1 [compound 32, (E)-Methyl 3-(3-(N-((4′-isopropoxy-[1,1′-biphenyl]-4-yl)methyl)cyclohexanecarboxamido)phenyl)acrylate] | 1000 to 10000 | ++ (‘++’ means Cmpd/Fex > 10 & < 100) |
| COC(=O)/C=C/c1cccc(N(Cc2ccc(-c3ccc(OC)cc3F)cc2)C(=O)C2CCCCC2)c1 [compound 33, (E)-Methyl 3-(3-(N-((2′-fluoro-4′-methoxy-[1,1′-biphenyl]-4-yl)methyl)cyclohexanecarboxamido)phenyl)acrylate] | 1000 to 10000 | ++ (‘++’ means Cmpd/Fex > 10 & < 100) |
| COC(=O)/C=C/c1cccc(N(Cc2ccc(-c3ccc(Cl)cc3)cc2)C(=O)C2CCCCC2)c1 [compound 34, (E)-Methyl 3-(3-(N-((4′-chloro-[1,1′-biphenyl]-4-yl)methyl)cyclohexanecarboxamido)phenyl)acrylate] | 1000 to 10000 | +++ (‘+++’ means Cmpd/Fex < 10) |
| COC(=O)/C=C/c1cccc(N(Cc2ccc(-c3cccc(C(F)(F)F)c3)cc2)C(=O)C2CCCCC2)c1 [compound 35, (E)-Methyl 3-(3-(N-((3′-(trifluoromethyl)-[1,1′-biphenyl]-4-yl)methyl)cyclohexanecarboxamido)phenyl)acrylate] | 1000 to 10000 | ++ (‘++’ means Cmpd/Fex > 10 & < 100) |
